The results in this text go back to BindingDB's records for doi:10.1021/acs.jmedchem.0c00012 (University of Perugia, 2020).

What is called EC50 is the midpoint of the concentration-response curve.

In the data set the target is T1, Nuclear receptor subfamily 1 group I member 2 (Homo sapiens, UniProt O75469).
T1 sequence (O75469 whole entry): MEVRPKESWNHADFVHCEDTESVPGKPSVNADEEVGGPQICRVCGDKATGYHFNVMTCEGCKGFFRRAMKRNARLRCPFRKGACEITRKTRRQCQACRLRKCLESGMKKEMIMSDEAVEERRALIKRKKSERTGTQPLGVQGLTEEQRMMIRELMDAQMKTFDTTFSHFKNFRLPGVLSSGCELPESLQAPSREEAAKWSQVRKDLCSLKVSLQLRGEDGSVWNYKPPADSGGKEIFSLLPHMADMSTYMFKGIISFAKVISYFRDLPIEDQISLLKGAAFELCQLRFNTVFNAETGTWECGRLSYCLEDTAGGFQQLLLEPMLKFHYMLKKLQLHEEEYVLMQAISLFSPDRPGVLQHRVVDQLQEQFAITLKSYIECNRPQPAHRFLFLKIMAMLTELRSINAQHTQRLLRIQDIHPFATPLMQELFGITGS
In words: Agonist activity at His-tagged PXR-LBD/SRC-1p (unknown origin) expressed in Escherichia coli BL21(DE3) by coactivator recruitment based Alpha-screen assay. In general terms: In Alpha technology, singlet oxygen from a donor bead excites a nearby acceptor bead.

`Cc1c(C)c2c(c(C)c1O)CC[C@@](C)(CCC[C@H](C)CCC[C@H](C)CCCC(C)C(=O)O)O2` (stereo partly specified): it took 3.3 µM to reach a half-maximal effect (EC50).
